Data from patent US20240425523A1, “Compounds for the Degradation of EGFR Kinase” (Beigene Switzerland GMBH, priority 2023, published 2024).

Key:
Format in all cases: cell-based
[1] = target: T1, EGFR-L858R/C797S (H1975-clone #8 cells) (Homo sapiens, UniProt P00533, C797S/L858R); experiment: Cell degradation of EGFR, HTRF assay, H1975-clone#8 (L858R/C797S) cells; conditions: 16 h treatment; for DC50: EGFR degradation; for Dmax: maximum percentage of degradation
T1 construct: expressed in transfected cells; host or cells: H1975 (endogenous EGFR knocked out, clone #8)

[2] = target: T2, p-EGFR L858R (BaF3-L858R cells) (Homo sapiens, UniProt P00533, L858R); experiment: Cell p-EGFR inhibition assay, HTRF, BaF3-L858R cells; conditions: 16 h treatment; for Imax (%): maximum percentage of pEGFR inhibition; for IC50: pEGFR inhibition
T2 construct: host or cells: BaF3
Outline: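 BaF3-L858R cells treated 16 h at 37 °C, 5% CO2 with compound from 10 uM top, 5-fold dilutions, 8 doses, in 0.1% DMSO medium. Lysates read overnight by HTRF p-EGFR antibodies; IC50 fitted to four-parameter curve against DMSO high control.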

[3] = target: T3, EGFR L858R (BaF3-L858R cells) (Homo sapiens, UniProt P00533, L858R); experiment: Cell degradation of EGFR, HTRF assay, BaF3-L858R cells; conditions: 16 h treatment; for DC50: EGFR degradation; for Dmax: maximum percentage of degradation
T3 construct: host or cells: BaF3
Outline: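 BaF3-L858R cells treated 16 h at 37° C, 5% CO2 with compound (top 10 uM final, 5-fold, 8 doses, 0.1% DMSO). DC50 from four-parameter fit; Dmax is maximum percent degradation.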

[4] = target: p-EGFR Del19/C797S (H1975-clone #23 cells) (Homo sapiens, UniProt P00533); experiment: Cell p-EGFR inhibition assay, HTRF, H1975-clone#23 (DEL19/C797S) cells; conditions: 16 h treatment; for Imax (%): maximum percentage of pEGFR inhibition; for IC50: pEGFR inhibition
Outline: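 Phospho-EGFR read by overnight HTRF on lysates, normalized to DMSO-treated high control; IC50, Hill slope and Imax fitted. Compounds were applied for 16 h (10 uM top, 5-fold steps, 8 doses) to an H1975 single clone carrying only exogenous Del19/C797S EGFR after sgRNA knockout of endogenous copies.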

| Compound | DC50 [1] [nM] | Dmax [1] [%] | Imax (%) [2] [%] | IC50 [2] [nM] | DC50 [3] [nM] | Dmax [3] [%] | Imax (%) [4] [%] | IC50 [4] [nM] |
| --- | --- | --- | --- | --- | --- | --- | --- | --- |
| Cc1cc2cc(n1)-c1cnn(C)c1OC[C@H]1CCC(C1)CN1/C(=N/C2=O)Nc2ccc(N3CC(N(C)C4CCN(c5cc(F)c([C@H]6CCC(=O)NC6=O)c(F)c5)CC4)C3)cc21 [Example 124, (R)-3-(4-(4-((1-((7^1R,7^3S,E)-1^1,2^6-dimethyl-3-oxo-5^2,5^3-dihydro-1^1H,5^1H-9-oxa-4-aza-5(2,1)-benzo[d]imidazola-2(2,4)-pyridina-1(4,5)-pyrazola-7(1,3)-cyclopentanacyclononaphane-5^6-yl)azetidin-3-yl)(methyl)amino)piperidin-1-yl)-2,6-difluorophenyl)piperidine-2,6-dione] | 2.3 | 67.5 | 94.6 | 17.1 | 3.58 | 71.1 | 99.6 | 0.9 |
| COC[C@H]1CN(c2ccc3c(c2)N2C[C@@H]4CC[C@H](COc5c(c(C)nn5C)-c5cc(cc(C)n5)C(=O)/N=C/2N3)C4)CCN1C1CCN(c2c(C)cc(C3CCC(=O)NC3=O)nc2C)CC1 (stereo partly drawn) [Example 141, 3-(5-(4-((R)-2-(methoxymethyl)-4-((7^1R,7^3S,E)-1^1,1^3,2^6-trimethyl-3-oxo-5^2,5^3-dihydro-1^1H,5^1H-9-oxa-4-aza-5(2,1)-benzo[d]imidazola-2(2,4)-pyridina-1(4,5)-pyrazola-7(1,3)-cyclopentanacyclononaphane-5^6-yl)piperazin-1-yl)piperidin-1-yl)-4,6-dimethylpyridin-2-yl)piperidine-2,6-dione] | 0.804 | 66.1 | 98.22 | 7.7 | 1.13 | 87.5 | 100.38 | 0.825 |
| Cc1cc2cc(n1)-c1c(C)nn(C)c1OC[C@H]1CC[C@H](C1)CN1/C(=N/C2=O)Nc2ccc(N3C[C@@H](C)N(C4CCN(c5cc(F)c([C@H]6CCC(=O)NC6=O)c(F)c5)CC4)C[C@H]3C)cc21 [Example 196, (R)-3-(4-(4-((2R,5R)-2,5-dimethyl-4-((7^1R,7^3S,E)-1^1,1^32^6-trimethyl-3-oxo-5^2,5^3-dihydro-1^1H,5^1H-9-oxa-4-aza-5(2,1)-benzo[d]imidazola-2(2,4)-pyridina-1(4,5)-pyrazola-7(1,3)-cyclopentanacyclononaphane-5^6-yl)piperazin-1-yl)piperidin-1-yl)-2,6-difluorophenyl)piperidine-2,6-dione] | 3.21 | 88.8 | 85.84 | 3.09 | 1.61 | 91.9 | 99.76 | 2.81 |
| Cc1cc2cc(n1)-c1cnn(C)c1OC[C@H]1CCC(C1)CN1/C(=N/C2=O)Nc2ccc(N3CC4(CCN(C5CCN(c6cc(F)c([C@H]7CCC(=O)NC7=O)c(F)c6)CC5)CC4)C3)cc21 [Example 125, (R)-3-(4-(4-(2-((7^1R,7^3S,E)-1^1,2^6-dimethyl-3-oxo-5^2,5^3-dihydro-1^1H,5^1H-9-oxa-4-aza-5(2,1)-benzo[d]imidazola-2(2,4)-pyridina-1(4,5)-pyrazola-7(1,3)-cyclopentanacyclononaphane-5^6-yl)-2,7-diazaspiro[3.5]nonan-7-yl)piperidin-1-yl)-2,6-difluorophenyl)piperidine-2,6-dione] | 2.61 | 67.4 | 98.6 | 20.7 | 1.37 | 77.1 | 101.9 | 2.2 |
| Cc1cc2cc(n1)-c1cnn(C)c1OC[C@H]1CCC(C1)CN1/C(=N/C2=O)Nc2ccc(N3CCN([C@H]4CCN(c5ccc(C6CCC(=O)NC6=O)nc5C)CC4(F)F)CC3)cc21 (stereo partly drawn) [Example 83, 3-(5-((S)-4-(4-((7^1R,7^3S,E)-1^1,2^6-dimethyl-3-oxo-5^2,5^3-dihydro-1^1H,5^1H-9-oxa-4-aza-5(2,1)-benzo[d]imidazola-2(2,4)-pyridina-1(4,5)-pyrazola-7(1,3)-cyclopentanacyclononaphane-5^6-yl)piperazin-1-yl)-3,3-difluoropiperidin-1-yl)-6-methylpyridin-2-yl)piperidine-2,6-dione] | 5.64 | 81.8 | 96.5 | 18 | 4.08 | 69.1 | 100.7 | 1 |

The remaining lines, values ahead:

| DC50 [1] [nM] | Dmax [1] [%] | Imax (%) [2] [%] | IC50 [2] [nM] | DC50 [3] [nM] | Dmax [3] [%] | Imax (%) [4] [%] | IC50 [4] [nM] | Compound |
| --- | --- | --- | --- | --- | --- | --- | --- | --- |
| 2.94 | 86.5 | 96.88 | 2.88 | 2.36 | 85.7 | 99.55 | 1.45 | COC[C@@H]1CN(c2ccc3c(c2)N2CC4CC[C@H](COc5c(c(C)nn5C)-c5cc(cc(C)n5)C(=O)/N=C/2N3)C4)CCN1C1CCN(c2c(F)cc(NC3CCC(=O)NC3=O)cc2F)CC1 (stereo partly drawn) [Example 133, 3-((3,5-difluoro-4-(4-((S)-2-(methoxymethyl)-4-((7R,7^3S,E)-1^1,1^3,2^6-trimethyl-3-oxo-5^2,5^3-dihydro-1^1H,5^1H-9-oxa-4-aza-5(2,1)-benzo[d]imidazola-2(2,4)-pyridina-1(4,5)-pyrazola-7(1,3)-cyclopentanacyclononaphane-5^6-yl)piperazin-1-yl)piperidin-1-yl)phenyl)amino)piperidine-2,6-dione] |
| 2.38 | 90.2 | 92.5 | < 0.128 | 4.4 | 87.6 | 100.03 | 2.11 | CC[C@H]1CN(c2ccc3c(c2)N2C[C@@H]4CC[C@H](COc5c(c(C)nn5C)-c5cc(cc(C)n5)C(=O)/N=C/2N3)C4)CCN1C1CCN(c2cc(F)c([C@H]3CCC(=O)NC3=O)c(F)c2)CC1 [Example 189, (R)-3-(4-(4-((S)-2-ethyl-4-((7^1R,7^3S,E)-1^1,1^3,2^6-trimethyl-3-oxo-5^2,5^3-dihydro-1^1H,5^1H-9-oxa-4-aza-5(2,1)-benzo[d]imidazola-2(2,4)-pyridina-1(4,5)-pyrazola-7(1,3)-cyclopentanacyclononaphane-5^6-yl)piperazin-1-yl)piperidin-1-yl)-2,6-difluorophenyl)piperidine-2,6-dione] |
| 7.25 | 83.9 | 98.51 | 2.83 | 4.07 | 88.7 | 100.72 | 1.28 | CCc1nn(C)c2c1-c1cc(cc(C)n1)C(=O)/N=C1\Nc3ccc(N4CCN(C5CCN(c6cc(F)c([C@H]7CCC(=O)NC7=O)c(F)c6)CC5)[C@@H](COC)C4)cc3N1C[C@@H]1CC[C@H](CO2)C1 [Example 175, (R)-3-(4-(4-((R)-4-((7^1R,7^3S,E)-1^3-ethyl-1^1,2^6-dimethyl-3-oxo-5^2,5^3-dihydro-1^1H,5^1H-9-oxa-4-aza-5(2,1)-benzo[d]imidazola-2(2,4)-pyridina-1(4,5)-pyrazola-7(1,3)-cyclopentanacyclononaphane-5^6-yl)-2-(methoxymethyl)piperazin-1-yl)piperidin-1-yl)-2,6-difluorophenyl)piperidine-2,6-dione] |
